Test results taken from the NIST ThermoML archive (doi:10.1021/acs.jced.8b00975).
± gives the expanded uncertainty stated by the source.

Test: xn = mol fraction of the nth substance listed
Settings: Liquid, Vibrating tube method

C=C(C)C(=O)OCCN(C)C [2-(dimethylamino)ethyl methylpropenoate] + CCCCO
mass density [kg/m3]
Settings	100 kPa	5000 kPa	10000 kPa	15000 kPa	20000 kPa	25000 kPa	30000 kPa	35000 kPa
293.15 K, x1 = 0.0301	817.21 ± 0.52	820.9 ± 0.52	824.39 ± 0.53	827.71 ± 0.54	830.88 ± 0.56	833.94 ± 0.57	836.92 ± 0.58	839.85 ± 0.59
293.15 K, x1 = 0.06	824.09 ± 0.52	827.83 ± 0.52	831.32 ± 0.53	834.6 ± 0.54	837.73 ± 0.55	840.76 ± 0.56	843.75 ± 0.58	846.74 ± 0.59
293.15 K, x1 = 0.1005	833.13 ± 0.52	836.85 ± 0.52	840.32 ± 0.53	843.61 ± 0.54	846.74 ± 0.55	849.77 ± 0.56	852.74 ± 0.57	855.68 ± 0.58
293.15 K, x1 = 0.1995	852.44 ± 0.52	856.11 ± 0.52	859.55 ± 0.53	862.82 ± 0.54	865.96 ± 0.55	869 ± 0.56	872 ± 0.56	875.01 ± 0.57
293.15 K, x1 = 0.2993	868.71 ± 0.52	872.37 ± 0.53	875.83 ± 0.53	879.12 ± 0.54	882.28 ± 0.55	885.36 ± 0.55	888.38 ± 0.56	891.38 ± 0.57
293.15 K, x1 = 0.4005	882.69 ± 0.52	886.4 ± 0.53	889.87 ± 0.53	893.17 ± 0.54	896.32 ± 0.54	899.39 ± 0.55	902.42 ± 0.56	905.46 ± 0.56
293.15 K, x1 = 0.4521	889.04 ± 0.52	892.7 ± 0.53	896.14 ± 0.53	899.43 ± 0.54	902.58 ± 0.54	905.66 ± 0.55	908.71 ± 0.56	911.75 ± 0.56
293.15 K, x1 = 0.499	894.3 ± 0.52	897.94 ± 0.53	901.38 ± 0.53	904.66 ± 0.54	907.82 ± 0.55	910.91 ± 0.55	913.96 ± 0.56	917.02 ± 0.56
293.15 K, x1 = 0.5494	899.59 ± 0.52	903.22 ± 0.53	906.66 ± 0.53	909.96 ± 0.54	913.14 ± 0.54	916.24 ± 0.55	919.29 ± 0.55	922.33 ± 0.56
293.15 K, x1 = 0.5994	904.39 ± 0.53	908.07 ± 0.53	911.52 ± 0.54	914.8 ± 0.54	917.94 ± 0.54	921.02 ± 0.55	924.09 ± 0.55	927.2 ± 0.56
293.15 K, x1 = 0.7005	913.06 ± 0.53	916.73 ± 0.53	920.19 ± 0.54	923.49 ± 0.54	926.66 ± 0.55	929.77 ± 0.55	932.85 ± 0.55	935.95 ± 0.56
293.15 K, x1 = 0.7989	920.53 ± 0.53	924.22 ± 0.54	927.7 ± 0.54	931.01 ± 0.55	934.2 ± 0.55	937.32 ± 0.55	940.42 ± 0.56	943.55 ± 0.56
293.15 K, x1 = 0.8992	927.17 ± 0.54	930.88 ± 0.54	934.38 ± 0.55	937.71 ± 0.55	940.93 ± 0.55	944.08 ± 0.56	947.2 ± 0.56	950.36 ± 0.56
293.15 K, x1 = 0.9293	928.88 ± 0.54	932.61 ± 0.54	936.14 ± 0.55	939.5 ± 0.55	942.75 ± 0.55	945.91 ± 0.56	949.02 ± 0.56	952.13 ± 0.56
293.15 K, x1 = 0.9592	930.67 ± 0.54	934.41 ± 0.54	937.96 ± 0.55	941.35 ± 0.55	944.61 ± 0.56	947.78 ± 0.56	950.89 ± 0.56	953.97 ± 0.56
303.15 K, x1 = 0.0302	809.38 ± 0.52	813.38 ± 0.53	817.11 ± 0.54	820.61 ± 0.55	823.91 ± 0.56	827.06 ± 0.57	830.08 ± 0.58	833.02 ± 0.6
303.15 K, x1 = 0.0602	816.25 ± 0.52	820.35 ± 0.52	824.12 ± 0.53	827.61 ± 0.54	830.9 ± 0.56	834.03 ± 0.57	837.07 ± 0.58	840.08 ± 0.59
303.15 K, x1 = 0.1007	825 ± 0.52	829.05 ± 0.52	832.79 ± 0.53	836.28 ± 0.54	839.57 ± 0.55	842.73 ± 0.56	845.81 ± 0.58	848.85 ± 0.59
303.15 K, x1 = 0.2007	844.03 ± 0.52	848.08 ± 0.53	851.83 ± 0.53	855.35 ± 0.54	858.69 ± 0.55	861.89 ± 0.56	865.03 ± 0.57	868.15 ± 0.58
303.15 K, x1 = 0.3007	860.04 ± 0.52	864.03 ± 0.53	867.77 ± 0.53	871.3 ± 0.54	874.67 ± 0.55	877.92 ± 0.56	881.1 ± 0.56	884.26 ± 0.57
303.15 K, x1 = 0.4013	873.63 ± 0.52	877.52 ± 0.53	881.22 ± 0.53	884.76 ± 0.54	888.16 ± 0.55	891.46 ± 0.55	894.68 ± 0.56	897.86 ± 0.57
303.15 K, x1 = 0.4512	879.59 ± 0.52	883.43 ± 0.53	887.11 ± 0.54	890.65 ± 0.54	894.08 ± 0.55	897.42 ± 0.55	900.69 ± 0.56	903.91 ± 0.57
303.15 K, x1 = 0.5007	885.03 ± 0.52	888.88 ± 0.53	892.55 ± 0.54	896.09 ± 0.54	899.51 ± 0.55	902.86 ± 0.55	906.16 ± 0.56	909.45 ± 0.56
303.15 K, x1 = 0.5502	890.11 ± 0.53	894.02 ± 0.53	897.73 ± 0.54	901.29 ± 0.54	904.73 ± 0.55	908.09 ± 0.55	911.42 ± 0.56	914.74 ± 0.56
303.15 K, x1 = 0.6045	895.25 ± 0.53	899.16 ± 0.53	902.88 ± 0.54	906.44 ± 0.54	909.9 ± 0.55	913.27 ± 0.55	916.62 ± 0.56	919.96 ± 0.56
303.15 K, x1 = 0.7005	903.5 ± 0.53	907.36 ± 0.53	911.08 ± 0.54	914.68 ± 0.54	918.19 ± 0.55	921.62 ± 0.55	925.01 ± 0.56	928.36 ± 0.56
303.15 K, x1 = 0.8026	911.12 ± 0.53	914.97 ± 0.54	918.68 ± 0.54	922.29 ± 0.55	925.8 ± 0.55	929.26 ± 0.56	932.68 ± 0.56	936.08 ± 0.56
303.15 K, x1 = 0.9026	917.53 ± 0.54	921.4 ± 0.54	925.14 ± 0.55	928.77 ± 0.55	932.32 ± 0.56	935.81 ± 0.56	939.25 ± 0.56	942.69 ± 0.57
303.15 K, x1 = 0.9303	919.17 ± 0.54	923.07 ± 0.54	926.83 ± 0.55	930.48 ± 0.55	934.04 ± 0.56	937.53 ± 0.56	940.98 ± 0.56	944.42 ± 0.57
303.15 K, x1 = 0.9616	921.02 ± 0.54	924.91 ± 0.55	928.67 ± 0.55	932.32 ± 0.55	935.89 ± 0.56	939.4 ± 0.56	942.88 ± 0.57	946.34 ± 0.57
313.15 K, x1 = 0.0302	801.72 ± 0.52	805.93 ± 0.53	809.83 ± 0.54	813.46 ± 0.55	816.91 ± 0.56	820.24 ± 0.57	823.51 ± 0.59	826.8 ± 0.6
313.15 K, x1 = 0.0603	808.58 ± 0.52	812.75 ± 0.53	816.62 ± 0.54	820.25 ± 0.55	823.69 ± 0.56	827.01 ± 0.57	830.28 ± 0.59	833.54 ± 0.6
313.15 K, x1 = 0.1019	817.15 ± 0.52	821.38 ± 0.53	825.29 ± 0.54	828.95 ± 0.55	832.41 ± 0.56	835.74 ± 0.57	839 ± 0.58	842.24 ± 0.59
313.15 K, x1 = 0.2001	835.66 ± 0.52	839.79 ± 0.53	843.65 ± 0.53	847.3 ± 0.54	850.79 ± 0.55	854.16 ± 0.56	857.46 ± 0.57	860.72 ± 0.58
313.15 K, x1 = 0.301	851.41 ± 0.52	855.57 ± 0.53	859.51 ± 0.53	863.24 ± 0.54	866.8 ± 0.55	870.21 ± 0.56	873.49 ± 0.57	876.67 ± 0.58
313.15 K, x1 = 0.3999	864.54 ± 0.52	868.7 ± 0.53	872.64 ± 0.54	876.4 ± 0.54	880 ± 0.55	883.45 ± 0.56	886.78 ± 0.57	890.02 ± 0.57
313.15 K, x1 = 0.4519	870.67 ± 0.52	874.82 ± 0.53	878.78 ± 0.54	882.54 ± 0.54	886.15 ± 0.55	889.61 ± 0.56	892.94 ± 0.56	896.17 ± 0.57
313.15 K, x1 = 0.5002	875.94 ± 0.53	880.09 ± 0.53	884.04 ± 0.54	887.81 ± 0.54	891.43 ± 0.55	894.9 ± 0.56	898.25 ± 0.56	901.51 ± 0.57
313.15 K, x1 = 0.5505	881.12 ± 0.53	885.27 ± 0.53	889.22 ± 0.54	893.01 ± 0.54	896.64 ± 0.55	900.13 ± 0.56	903.49 ± 0.56	906.74 ± 0.57
313.15 K, x1 = 0.6004	885.84 ± 0.53	890.02 ± 0.53	894 ± 0.54	897.79 ± 0.54	901.42 ± 0.55	904.91 ± 0.56	908.27 ± 0.56	911.52 ± 0.57
313.15 K, x1 = 0.701	894.49 ± 0.53	898.55 ± 0.53	902.51 ± 0.54	906.34 ± 0.55	910.04 ± 0.55	913.62 ± 0.56	917.04 ± 0.56	920.32 ± 0.57
313.15 K, x1 = 0.8004	901.91 ± 0.53	905.99 ± 0.54	909.92 ± 0.54	913.71 ± 0.55	917.39 ± 0.55	920.98 ± 0.56	924.48 ± 0.56	927.93 ± 0.57
313.15 K, x1 = 0.9	908.36 ± 0.54	912.45 ± 0.54	916.43 ± 0.55	920.31 ± 0.55	924.08 ± 0.56	927.72 ± 0.56	931.24 ± 0.57	934.63 ± 0.57
313.15 K, x1 = 0.9322	910.31 ± 0.54	914.45 ± 0.54	918.45 ± 0.55	922.31 ± 0.56	926.03 ± 0.56	929.63 ± 0.56	933.11 ± 0.57	936.46 ± 0.57
313.15 K, x1 = 0.9608	911.98 ± 0.54	916.12 ± 0.55	920.11 ± 0.55	923.96 ± 0.56	927.68 ± 0.56	931.27 ± 0.57	934.75 ± 0.57	938.13 ± 0.57
